Patent US20130040998A1, “FLUORINATED HDAC INHIBITORS AND USES THEREOF” (Dana-Farber Cancer Institute, Inc., priority 2010, published 2013)

Assays:
[1] = test system: class IIa HDACs (HDAC4, HDAC5, HDAC7, HDAC9); experiment: HDAC inhibition assay, class IIa HDAC enzymes; assay type: biochemical, human
Protocol: (§1) The inventive compounds may be tested in any assay for HDAC inhibitor activity. In certain embodiments, the assay for determining the inhibitory effect of an inventive compound on an HDAC protein comprising: incubating the HDAC protein with a substrate of formula: […]
(§2) in the presence of an inventive compound; and determining the activity of the HDAC protein by monitoring the release of 7-amino-4-methylcoumarin after cleavage by trypsin.
(§3) In certain embodiments, the assay is performed in water. In other embodiments, the assay is performed in an organic solvent. In still other embodiments, the assay in performed in a buffer. In certain embodiments, the buffer is an assay buffer. In other embodiments, the assay buffer comprises HEPES, KCl, Tween-20, BSA, and TCEP. In further embodiments, the assay buffer is […] HEPES, 100 mM KCl, 0.001% Tween-20, 0.05% BSA, 200 µM TCEP, pH 7.4. In certain embodiments, the assay is performed at approximately pH 5.0-6.0. In certain embodiments, the assay is performed at approximately pH 5.0-9.0. In certain embodiments, the assay is performed at a pH optimum for an HDAC enzyme to function.

HDAC1-3 = experiment: HDAC inhibition assay, HDAC1-3; assay type: biochemical, human; conditions: fluorinated MAZ1702 versus MAZ1704
Protocol: as §1, §2, §3

[2] = difference versus unsubstituted cinnamic hydroxamic acid; Dessolin et al. 1970; cited from earlier work

Row | affinity for class IIa HDAC enzymes compared to MAZ1704 ([1]; FIG. 2 legend, in words) | binds fold better to class IIa enzymes ([1]; fluorinated MAZ1702 versus MAZ1704 (FIG. 2)) | fold increase in activity for class IIa enzymes ([1]; direct comparison with cinnamic hydroxamic acid) | Compound | fold increase in activity for HDAC1-3 (HDAC1-3) | pKa, units lower than unsubstituted cinammic hydroxamic acid [2]
1 | significantly increased affinity | 3.5-5 fold |  | O=C(NO)/C(F)=C/c1ccccc1 [MAZ1702] | 1-1.4 fold | 
2 |  |  | 5-10 fold | O=C(NO)C(F)=Cc1ccccc1 [α-fluoro cinnamic hydroxamic acid] |  | approximately 0.9 units
